“Also recorded” adds a separate entry of the source.
How the values were obtained:
[1] = test system: paclitaxel-induced neuropathic pain; settings: administered acutely; ref [27]; cited from earlier work
NMDA-induced cell death = settings: ref [29]; cited from earlier work
[2] = target: His-nNOS1-299 and GST-NOS1AP400-506 (Homo sapiens, UniProt P29475); experiment: AlphaScreen nNOS-NOS1AP binding disruption; settings: 1X PBS, BSA (1mg/mL), Tween-20 (0.1%), 0–200 μM, n = 4–9
p38 MAPK = settings: rats, cited from earlier work; for p38 MAPK activation in microglia: 5 minutes post treatment, returned to basal levels after 20 minutes, ref [46]
[3] = test system: cold response times, C57BL/6J mice; experiment: Paclitaxel-induced cold allodynia; assay type: in vivo
ERK1/2 = experiment: Western blot pERK1/2 in lumbar spinal cord; assay type: in vivo, mouse; settings: n = 5
[4] = test system: cold response times, C57BL/6J mice; experiment: PSNL-induced cold allodynia; assay type: in vivo
[5] = test system: mechanical paw withdrawal thresholds, C57BL/6J mice; experiment: PSNL-induced mechanical allodynia; assay type: in vivo
primary cortical neurons = experiment: Glutamate/glycine-induced cell death in primary cortical neurons; assay type: cell-based, Sprague-Dawley rat; settings: MK-801 20 μM; n = 3–4; p < 0.01 for each comparison
[6] = test system: p53 phosphorylated at Ser15; experiment: Western blot pSer15-p53 in lumbar spinal cord; assay type: in vivo, mouse; settings: paclitaxel 4 mg/kg i.p. on day 0, 2, 4, 6, n = 5, p = 0.002
[7] = test system: mechanical paw withdrawal thresholds, C57BL/6J mice; experiment: Paclitaxel-induced mechanical allodynia; assay type: in vivo; settings: paclitaxel 4 mg/kg i.p. on day 0, 2, 4, 6; starting on day 7 and ongoing on day 15; p < 0.0001
nNOS = settings: ref [6], [29]; cited from earlier work
His-nNOS_(1-299) = His-nNOS_(1-299) (UniProt P29476-1 1-299); experiment: AlphaScreen or HTRF
[8] = test system: NR1 and NR2B; astrocytes and microglia in the lumbar spinal cord; settings: direct intrathecal injections; ref [2]; cited from earlier work

Chain of His-nNOS1-299 and GST-NOS1AP400-506 (P29475 1-299): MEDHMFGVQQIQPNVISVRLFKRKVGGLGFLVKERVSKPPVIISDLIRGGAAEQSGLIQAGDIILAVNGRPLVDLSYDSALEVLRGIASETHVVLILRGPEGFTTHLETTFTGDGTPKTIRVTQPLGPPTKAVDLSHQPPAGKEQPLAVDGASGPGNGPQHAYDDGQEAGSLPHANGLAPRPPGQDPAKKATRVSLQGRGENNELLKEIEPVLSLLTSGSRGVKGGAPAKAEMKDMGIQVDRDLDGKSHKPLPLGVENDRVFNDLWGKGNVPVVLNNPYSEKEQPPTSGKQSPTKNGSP
Chain of His-nNOS_(1-299) (P29476 1-299): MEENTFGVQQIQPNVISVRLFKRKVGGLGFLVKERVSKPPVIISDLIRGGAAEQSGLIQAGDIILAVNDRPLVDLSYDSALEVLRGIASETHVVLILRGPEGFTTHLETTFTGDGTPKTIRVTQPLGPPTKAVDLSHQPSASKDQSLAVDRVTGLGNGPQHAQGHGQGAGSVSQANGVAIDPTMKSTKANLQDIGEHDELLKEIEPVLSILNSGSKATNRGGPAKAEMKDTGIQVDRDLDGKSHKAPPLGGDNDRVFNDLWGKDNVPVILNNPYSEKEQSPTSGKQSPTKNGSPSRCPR

With Oc1c(Cl)cc(Cl)cc1CNc1ccc2n[nH]nc2c1 [IC87201] as the molecule, how does the “suppression of paclitaxel-induced neuropathic pain” value [1] read?
The value was “efficacious in suppressing paclitaxel-induced neuropathic pain”.

What about the “NMDAR-evoked nNOS-NOS1AP association/p38 MAPK-dependent cell death” value (NMDA-induced cell death) of the same molecule?
The value was “blocked”.

Which “disruption of nNOS-NOS1AP binding” value [2] does the source give for GRKKRRQRRR [TAT] here?
Its value is “did not interfere with the binding between His-nNOS1-299 and GST-NOS1AP400-506”.

Which “disruption of nNOS-NOS1AP binding” value [2] does the source give for GRKKRRQRRRGESVYAGQW [TAT-cp4GESV] here?
The value was “Neither TAT-cp4GESV nor TAT-GESVΔ1 disrupted the interactions; also recorded: Neither TAT-GESVΔ1 nor TAT-cp4GESV disrupted the binding”.

And the NMDA-induced cell death (NMDA-induced cell death)?
Its NMDA-induced cell death is “did not disrupt NMDA activation-induced cell death”.

With formalin as the molecule, how does the “p38 MAPK activation in microglia” value (p38 MAPK) read?
Its value is “induced p38 MAPK activation in microglia 5 minutes post treatment”.

With GRKKRRQRRRYAGQWGES [TAT-GESVΔ1] as the molecule, how does the “cold response times vs saline (i.t.) in paclitaxel-treated mice” value ([3]; 10 nmol i.t., n = 6, TAT-GESV p = 0.039, TAT-GESVΔ1 p = 1) read?
The value was “did not differ from saline”.

And the “pERK1/2 elevation vs saline (i.t.), paclitaxel-treated mice” value (ERK1/2; 5 nmol i.t., 20 min post injection, p > 0.4)?
Its value is “neither TAT-GESV nor TAT-GESVΔ1 (5 nmol, i.t.) altered pERK1/2 elevation”.

And the “disruption of nNOS-NOS1AP binding” value [2]?
The value was “Neither TAT-cp4GESV nor TAT-GESVΔ1 disrupted the interactions; also recorded: Neither TAT-GESVΔ1 nor TAT-cp4GESV disrupted the binding”.

And the “cold responsiveness, repeated dosing, PSNL” value ([4]; 10 nmol i.t. once daily, 8 consecutive days, n = 5–10, TAT-GESV vs saline p < 0.05, TAT-GESVΔ1 p > 0.25 for each comparison)?
Its value is “did not reliably alter cold responsiveness relative to saline (i.t.), MK-801 (i.t.) or TAT-GESV (i.t.)”.

What about the “ipsilateral cold-response times vs saline, PSNL” value ([4]; 10 nmol i.t., acute, n = 6–10, TAT-GESV p < 0.01, TAT-GESVΔ1 p = 1) of the same molecule?
The value was “did not differ”.

And the “contralateral cold responsiveness, PSNL or sham” value ([4]; acute i.t., p = 0.39 (dose), p = 0.491 (drug), p = 0.882 (interaction))?
Its value is “neither TAT-GESV nor TAT-GESVΔ1 altered mechanical or cold responsiveness in the paw contralateral to PSNL or sham surgery”.

What about the “ipsilateral paw withdrawal thresholds vs saline, PSNL” value ([5]; 10 nmol i.t., acute, n = 6–10, TAT-GESV p < 0.05, TAT-GESVΔ1 p = 1) of the same molecule?
Its value is “did not differ”.

For substance P, which “p38 MAPK activation in microglia” value (p38 MAPK) is on record?
The value was “induced p38 MAPK activation in microglia 5 minutes post treatment”.

With O=C(O)c1ccc(NCc2cc(Cl)cc(Cl)c2O)cc1O [ZL006] as the molecule, how does the “suppression of paclitaxel-induced neuropathic pain” value [1] read?
Its value is “efficacious in suppressing paclitaxel-induced neuropathic pain”.

Which “cold sensitivity vs saline, repeated dosing, PSNL” value ([4]; MK-801 5 nmol i.t. once daily, 8 consecutive days, n = 5–10, p = 0.072) does the source give for C[C@]12N[C@H](Cc3ccccc31)c1ccccc12 [MK-801] here?
Its value is “approached significance”.

What about the “cell death vs all other groups exposed to glutamate/glycine” value (primary cortical neurons) of the same molecule?
Its value is “Cell death was lower”.

And the “sustained mechanical efficacy, day 4–8, repeated dosing, PSNL” value ([5]; MK-801 5 nmol i.t. once daily, p < 0.001 for each comparison)?
The value was “similarly increased mechanical paw withdrawal thresholds relative to saline (i.t.) or TAT-GESVΔ1 (i.t.) with sustained efficacy”.

For CN[C@H](CC(=O)O)C(=O)O [NMDA, N-methyl-D-aspartate], which “spinal p38 MAPK activation” value (p38 MAPK; administration directly to the spinal cord, ref [45]) is on record?
Its value is “induced p38 MAPK activation”.

What does the source list for CC(=O)O[C@H]1C(=O)[C@@]2(C)[C@H]([C@H](OC(=O)c3ccccc3)[C@]3(O)C[C@H](OC(=O)[C@H](O)[C@@H](NC(=O)c4ccccc4)c4ccccc4)C(C)=C1C3(C)C)[C@]1(OC(C)=O)CO[C@@H]1C[C@@H]2O [Paclitaxel]?
cold response times after paclitaxel vs vehicle ([3]; paclitaxel 4 mg/kg i.p. on day 0, 2, 4, 6, starting on day 7 and ongoing on day 15, p < 0.0001): increased cold response times; pSer15-p53 levels, paclitaxel-treated vs vehicle-treated mice [6]: increased lumbar spinal cord levels of pSer15-p53; mechanical paw withdrawal thresholds after paclitaxel vs vehicle [7]: lowered mechanical paw withdrawal thresholds; pERK1/2 levels, paclitaxel-treated vs cremophor-vehicle treated mice (ERK1/2; paclitaxel 4 mg/kg i.p. on day 0, 2, 4, 6, lumbar spinal cord, saline i.t., p < 0.0001): elevated pERK1/2 levels

B1: nNOS1-99: nNOS fragment disrupting nNOS-NOS1AP interactions (protein, UniProt P29475 1-99, looked up, fragment)
chain: MEDHMFGVQQIQPNVISVRLFKRKVGGLGFLVKERVSKPPVIISDLIRGGAAEQSGLIQAGDIILAVNGRPLVDLSYDSALEVLRGIASETHVVLILRG
With B1 as the molecule, how does the “enzymatic activity of nNOS or production of NO” value (nNOS) read?
The value was “does not alter the enzymatic activity of nNOS or the production of NO”.

Which IC50 (His-nNOS_(1-299)) does the source give for GRKKRRQRRRYAGQWGESV [L-TAT-GESV] here?
The IC50 was 8.47 µM.

B2: CCL-1: chemokines C-C motif ligand 1 (protein, UniProt P22362 24-96, looked up)
C-C motif chemokine 1: KSMQVPFSRCCFSFAEQEIPLRAILCYRNTSSICSNEGLIFKLKRGKEACALDTVGWVQRHRKMLRHCPSKRK
Which “NR1 and NR2B phosphorylation, glial activation in lumbar spinal cord” value [8] does the source give for B2 here?
Its value is “induced phosphorylation of NR1 and NR2B and activated astrocytes and microglia in the lumbar spinal cord”.

Reference: PMC6085107 (Pain, 2018)
